Measured values taken from US9662314B2, “Compounds and methods for the treatment of muscular disease, and related screening methods” (Tufts Medical Center, Inc., priority 2011, dated 2017).

What was measured:
[1] = tested on: vascular endothelial growth factor (VEGF); details: Jeong et al. 2011; cited from earlier work
[2] = tested on: glucose transporter 1 (GLUT-1); details: Jeong et al. 2011; cited from earlier work
mammary carcinoma = details: intraperitoneal administration, murine mammary carcinoma (Nakajima et al., 2007); cited from earlier work
BIN1 = details: U2OS cells, third most up-regulated protein (Kang et al. 2006); cited from earlier work
splicing factor hnRNP L = details: U2OS cells, most up-regulated protein (Kang et al. 2006); cited from earlier work
[3] = literature statement; cited from earlier work
[4] = tested on: Smooth mutant Drosophila flies (sm homozygotes, that develop muscle dystrophy); experiment: Survival of adult smooth mutant Drosophila flies treated with ascochlorin (FIG. 1); type: in vivo; details: adult sm homozygote flies on paper discs, 1 mM solution in 9% sucrose, 10% ethanol, throughout lifespan, vs vehicle alone
Description: Smooth mutant Drosophila flies (sm homozygotes, that develop muscle dystrophy) were maintained on paper discs soaked either with ascochlorin (Santa Cruz Biotechnology, 1 mM solution in 9% sucrose, 10% ethanol), or with vehicle alone. The treatment was maintained throughout the lifespan of the organism. Unaffected control siblings (sm heterozygotes) were maintained on vehicle. The number of dead flies was recorded daily, and percent survival was plotted as a function of time in days.

[5] = tested on: human osteosarcoma cells (U2OS); details: proteome analysis (Kang et al. 2006); cited from earlier work

Compound | expression of VEGF [1] | expression of GLUT-1 [2] | cancer growth (mammary carcinoma) | survival (mammary carcinoma) | BIN1 up-regulation (BIN1) [×] | hnRNP L up-regulation (splicing factor hnRNP L) [×] | toxicity [3] | survival time [4] | increase in the levels of three proteins [5] [fold]
COc1c(Cl)c(C)c(C=O)c(O)c1C/C=C(C)/C=C/[C@@]1(C)[C@H](C)CCC(=O)[C@@H]1C [MAC, 4-O-methylascochlorin] | increases the expression | increases the expression |  |  |  |  |  |  | 
CC(/C=C/[C@@]1(C)[C@H](C)CCC(=O)[C@@H]1C)=C\Cc1c(O)c(Cl)c(C)c(C=O)c1O [ascochlorin] |  |  | significantly suppressed cancer growth | prolonged survival | 10 | 12 | non-toxic | prolonged survival time | ≥ 10
C/C(=C\Cc1c(O)c(Cl)c(C)c(C=O)c1O)CC/C=C(\C)[C@@H]1CC(=O)C(C)(C)O1 [ascofuranone] |  |  |  |  |  |  | non-toxic |  | 
